From PMC12102733, “The mycotoxin Beauvericin is an uncompetitive inhibitor of Cathepsin B” (Protein Science : A Publication of the Protein Society, 2025)

Key:
human CTSB = target: T1, human CTSB (Homo sapiens, UniProt P07858); assay: Enzyme kinetics of recombinant human CTSB in the presence of BEA; type: biochemical; conditions: uncompetitive; approximated from closest neighbor intersection point of [S]/v vs. [I] plot; Z-Leu-Arg AMC substrate, BEA 0-25 μM, 25 mM MES pH 5, 26°C; read-out: K i (estimated)
T1 construct: purchased R&D Biosystems 953‐CY
Method: Recombinant human CTSB (R&D Biosystems, Cat# 953‐CY) was activated in a solution of 25 mM MES pH 5 and 5 mM DTT at a protein concentration of 25 μg/mL, as indicated by the manufacturer. The activation was carried out by incubating the solution in a thermal bath at 26°C for 30 min and then diluting it to a concentration of 0.2 μg/mL in a 25 mM MES buffer pH 5. Complete conversion of Procathepsin B into its cleaved form by activation was verified by SDS‐PAGE (Figure S1, Supporting Information).
Reactions were carried out in a 96‐well black microplate (Greiner Bio‐One, Cat# 675086) in a final volume of 100 μL, using 20 ng of enzyme with increasing concentrations of the fluorogenic substrate Z‐Leu‐Arg AMC (R&D Biosystems, Cat# ES008) (from 0 to 200 μM) and BEA (from 0 to 25 μM).
Progress curves were measured using a TECAN infinite M plex microplate reader with an excitation wavelength of 380 nm and an emission wavelength of 460 nm. All the components, except the enzyme, were loaded onto the plate and were left to reach a temperature of 26°C. Protein samples were loaded using a multichannel pipette. Plates were shaken using a pulse of 3.5 s with an amplitude of 4.5 mm. Data was collected for a total of 1400 s with a reading interval of 45 s.
Reaction rates were calculated from the progress curves using linear regression. […]

[1] = Solubility in aqueous buffers; type: physicochemical; conditions: 0.1% (v/v) Tween 20 used to increase solubility
Method: NMR experiments were performed at 298 K on Bruker Avance III HD spectrometers operating at 750 MHz, equipped with 5 mm triple resonance TCI (^1H, ^13C, ^15N) cryoprobes and shielded z‐gradients. BEA compound was purchased (Item No. 11426) from Cayman Chemical, Ann Arbor, Michigan, USA, and recombinant human CTSB (6His tag at the C‐terminus) was purchased (Item No. 153921.10) from Biomol GmbH, Hamburg, Germany. Both CTSB and BEA were used without any further purifications. The purity of the compound (>95%) was checked by 1D ^1H NMR of 250 μM BEA compound measured (256 scans) in 90% (v/v) DMSOd6 (Figure 2a). […] To perform STD‐NMR experiments, 5 μM of CTSB and 250 μM BEA were prepared in 25 mM oxalic acid/sodium oxalate, 5% (v/v) DMSOd6, pH 5.0, 10% (v/v) D2O, and 0.1% (v/v) Tween 20. The STD‐NMR spectra were acquired with 4928 scans, and the subtraction of the reference spectrum was performed internally via phase cycling after every scan to obtain the STD effect. […] There was no compound signal detected below 0 ppm. […] The STD intensity of the aromatic proton STD effect was set to 100% as a reference, and the relative intensities were determined (Mayer and Meyer [2001]). […] Data was processed and analyzed with TopSpin 3.2 (Bruker BioSpin). […]

In the case of CC(C)[C@H]1OC(=O)[C@H](Cc2ccccc2)N(C)C(=O)[C@@H](C(C)C)OC(=O)[C@H](Cc2ccccc2)N(C)C(=O)[C@@H](C(C)C)OC(=O)[C@H](Cc2ccccc2)N(C)C1=O [BEA, Beauvericin], the Ki (human CTSB) is reported as roughly 44.3 µM and the “solubility in aqueous buffers” value [1] is reported as “sparingly soluble in aqueous buffers”.
